The source made the active and inactive calls.
Columns and labels:
[1] = viability loss in THP-1 monocytes – THP-1 cells, cytotoxicity control for Vif-APOBEC3G degradation inhibitor project, dose response (AID 1117359); type: functional; settings: THP-1
HEK293 = assay: cells; type: functional, cell-based; settings: Homo sapiens
[2] = target: T1, Nuclear receptor subfamily 0 group B member 1 (Homo sapiens, UniProt P51843); assay: Luminescence-based cell-based high throughput dose response assay for inhibitors of the orphan nuclear receptor subfamily 0, group B, member 1 (DAX1; NR0B1). [Related pubchem assays (depositor defined):AID504766, AID504790]; type: functional
T1 sequence (P51843 whole entry): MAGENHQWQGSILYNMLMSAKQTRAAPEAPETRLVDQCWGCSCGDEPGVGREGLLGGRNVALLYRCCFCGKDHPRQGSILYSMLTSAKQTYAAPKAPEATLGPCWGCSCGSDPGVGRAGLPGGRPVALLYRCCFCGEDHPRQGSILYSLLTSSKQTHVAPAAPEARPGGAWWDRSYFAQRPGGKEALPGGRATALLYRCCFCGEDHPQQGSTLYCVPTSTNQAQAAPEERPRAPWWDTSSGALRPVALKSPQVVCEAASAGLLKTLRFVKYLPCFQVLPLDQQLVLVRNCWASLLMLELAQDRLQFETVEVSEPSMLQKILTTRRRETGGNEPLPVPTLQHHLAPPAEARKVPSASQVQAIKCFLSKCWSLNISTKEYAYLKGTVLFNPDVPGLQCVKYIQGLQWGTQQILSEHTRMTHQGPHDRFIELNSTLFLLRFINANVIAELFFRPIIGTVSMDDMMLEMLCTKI

Aminopeptidase N = target: T2, Aminopeptidase N (Plasmodium falciparum FcB1/Columbia, UniProt O96935); assay: malaria alanyl aminopeptidase activity blockers – biochemical, fluorogenic H-Leu-NHMec substrate, 1536-well (AID 1445); parameters: species or system Plasmodium falciparum 3D7, 3D7
T2 sequence (O96935 whole entry): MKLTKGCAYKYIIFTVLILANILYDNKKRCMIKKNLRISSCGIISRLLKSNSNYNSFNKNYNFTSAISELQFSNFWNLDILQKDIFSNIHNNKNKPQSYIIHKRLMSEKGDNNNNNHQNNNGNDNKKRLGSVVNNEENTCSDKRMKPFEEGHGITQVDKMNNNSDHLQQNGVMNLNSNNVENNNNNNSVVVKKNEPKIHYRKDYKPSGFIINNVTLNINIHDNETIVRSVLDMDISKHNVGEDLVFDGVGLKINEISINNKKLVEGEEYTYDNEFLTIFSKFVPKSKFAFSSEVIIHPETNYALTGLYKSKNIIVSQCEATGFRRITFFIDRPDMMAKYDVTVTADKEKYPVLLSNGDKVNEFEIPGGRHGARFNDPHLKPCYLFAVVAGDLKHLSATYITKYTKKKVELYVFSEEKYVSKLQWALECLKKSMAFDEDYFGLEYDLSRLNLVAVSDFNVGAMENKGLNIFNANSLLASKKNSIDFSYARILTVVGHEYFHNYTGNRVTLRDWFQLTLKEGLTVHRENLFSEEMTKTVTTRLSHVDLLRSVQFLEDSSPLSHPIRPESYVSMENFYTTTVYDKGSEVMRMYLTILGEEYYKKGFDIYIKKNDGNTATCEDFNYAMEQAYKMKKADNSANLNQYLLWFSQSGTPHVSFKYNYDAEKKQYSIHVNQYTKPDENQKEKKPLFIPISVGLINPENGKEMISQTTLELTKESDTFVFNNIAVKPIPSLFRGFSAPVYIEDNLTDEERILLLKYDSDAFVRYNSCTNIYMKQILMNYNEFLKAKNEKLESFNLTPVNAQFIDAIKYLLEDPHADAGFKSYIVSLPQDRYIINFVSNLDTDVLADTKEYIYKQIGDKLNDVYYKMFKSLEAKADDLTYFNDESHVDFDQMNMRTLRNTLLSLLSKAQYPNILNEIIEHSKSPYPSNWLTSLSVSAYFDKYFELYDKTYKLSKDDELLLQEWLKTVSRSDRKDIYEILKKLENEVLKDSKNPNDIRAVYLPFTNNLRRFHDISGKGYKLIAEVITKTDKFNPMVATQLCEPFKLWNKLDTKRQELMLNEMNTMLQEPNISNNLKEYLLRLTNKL

Genome polyprotein = Genome polyprotein (dengue virus type 2, UniProt P29990); assay: flavivirus cap methylation enzyme inhibition – biochemical, confirmation dose response, primary screen (AID 588689); type: functional
[3] = inhibition of ADAM10 peptide cleavage – biochemical, FRET peptide substrate, recombinant human ADAM10, selectivity assay for ADAM17 exosite inhibitor project, dose response (AID 743259);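 also: ADAM10 enzyme cleaving a FRET peptide substrate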
[4] = target: Disintegrin and metalloproteinase domain-containing protein 17 (Homo sapiens, UniProt P78536); assay: exosite inhibitors of ADAM17, dose response, biochemical (AID 743260)
[5] = viability of uninfected HEp-2 cells – cell-based, HTS, cytotoxicity control for RSV inhibitor project, dose response (AID 2410); type: functional; settings: human respiratory syncytial virus
[6] = HIV-1 Vif–A3G interaction blockers – biochemical, TR-FRET, GST-Vif 1-94, biotin-A3G peptide, dose response retest, primary screen (AID 1117319); type: functional;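 also: TR-FRET signal of purified GST-Vif binding a biotinylated A3G peptide; inhibitors lower the FRET signal by blocking Vif and A3G binding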
[7] = target: T3, Rac GTPase-activating protein 1 (Homo sapiens, UniProt Q9H0H5); assay: blockers of MgcRacGAP-driven Rac1 GTP hydrolysis – biochemical, ADP Hunter fluorescence, primary and confirmatory, confirmation (AID 624330); type: functional
T3 sequence (Q9H0H5 whole entry): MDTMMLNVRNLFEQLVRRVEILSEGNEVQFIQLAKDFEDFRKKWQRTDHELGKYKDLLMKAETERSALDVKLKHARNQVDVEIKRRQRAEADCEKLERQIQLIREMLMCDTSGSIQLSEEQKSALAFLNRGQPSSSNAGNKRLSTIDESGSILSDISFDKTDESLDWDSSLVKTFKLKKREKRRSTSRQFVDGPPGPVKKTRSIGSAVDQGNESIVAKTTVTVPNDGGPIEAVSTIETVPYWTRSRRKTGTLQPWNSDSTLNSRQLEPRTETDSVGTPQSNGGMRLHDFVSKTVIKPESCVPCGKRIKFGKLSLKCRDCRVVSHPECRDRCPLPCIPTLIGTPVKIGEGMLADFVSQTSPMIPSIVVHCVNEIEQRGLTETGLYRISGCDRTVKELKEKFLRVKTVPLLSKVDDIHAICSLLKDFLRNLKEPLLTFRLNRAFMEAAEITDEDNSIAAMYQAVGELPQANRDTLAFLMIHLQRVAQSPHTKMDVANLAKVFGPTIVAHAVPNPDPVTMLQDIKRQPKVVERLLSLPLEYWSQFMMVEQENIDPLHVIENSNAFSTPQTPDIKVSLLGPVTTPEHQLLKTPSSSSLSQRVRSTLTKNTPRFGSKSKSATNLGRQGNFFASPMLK

[8] = target: Peroxisome proliferator-activated receptor gamma/Nuclear receptor coactivator 2 (Homo sapiens, UniProt P37231); assay: (§1) TR-FRET dose response biochemical High Throughput Screening assay for agonists of the steroid receptor coactivator 2 (SRC-2) recruitment by the peroxisome proliferator-activated receptor gamma (PPAR gamma): non-selective agonists. [Related pubchem assays: 1297, 1032 ]; type: functional
[9] = target: FAD-linked sulfhydryl oxidase ALR (Homo sapiens, UniProt P55789); assay: ALR-catalysed DTT oxidation blockers – biochemical, H2O2 detection, luminescence, cherry-pick, dose response (AID 493248)
[10] = target: Peroxisome proliferator-activated receptor gamma/Nuclear receptor coactivator 1 (Homo sapiens, UniProt P37231); assay: as §1, with “1 (SRC-1)” for “2 (SRC-2)”, “assays (depositor defined):AID1300, AID1808, AID504735, AID631]” for “assays: 1297, 1032 ]”; type: protein assay
[11] = target: Peroxisome proliferator-activated receptor gamma/Nuclear receptor coactivator 3 (Homo sapiens, UniProt P37231); assay: as §1, with “3 (SRC-3)” for “2 (SRC-2)”, “1301 (Confirmation screen.), 1048 (Primary screen.)]” for “1297, 1032 ]”; type: functional

Sequence of Peroxisome proliferator-activated receptor gamma/Nuclear receptor coactivator 2 (P37231 whole entry): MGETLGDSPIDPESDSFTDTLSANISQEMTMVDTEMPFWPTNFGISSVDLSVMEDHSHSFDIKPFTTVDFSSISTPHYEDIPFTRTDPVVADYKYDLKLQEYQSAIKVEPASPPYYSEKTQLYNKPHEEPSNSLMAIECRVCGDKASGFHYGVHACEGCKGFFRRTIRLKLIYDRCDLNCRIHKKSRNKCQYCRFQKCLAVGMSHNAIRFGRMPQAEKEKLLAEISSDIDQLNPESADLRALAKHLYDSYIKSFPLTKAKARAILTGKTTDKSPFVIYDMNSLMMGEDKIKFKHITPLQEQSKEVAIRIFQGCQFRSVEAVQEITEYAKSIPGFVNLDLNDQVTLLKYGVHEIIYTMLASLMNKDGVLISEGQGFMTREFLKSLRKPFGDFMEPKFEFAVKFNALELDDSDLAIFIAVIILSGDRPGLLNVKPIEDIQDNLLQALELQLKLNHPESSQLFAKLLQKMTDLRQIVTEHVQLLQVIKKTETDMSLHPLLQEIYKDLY
Sequence of Peroxisome proliferator-activated receptor gamma/Nuclear receptor coactivator 2 (Q15596 whole entry, further chain): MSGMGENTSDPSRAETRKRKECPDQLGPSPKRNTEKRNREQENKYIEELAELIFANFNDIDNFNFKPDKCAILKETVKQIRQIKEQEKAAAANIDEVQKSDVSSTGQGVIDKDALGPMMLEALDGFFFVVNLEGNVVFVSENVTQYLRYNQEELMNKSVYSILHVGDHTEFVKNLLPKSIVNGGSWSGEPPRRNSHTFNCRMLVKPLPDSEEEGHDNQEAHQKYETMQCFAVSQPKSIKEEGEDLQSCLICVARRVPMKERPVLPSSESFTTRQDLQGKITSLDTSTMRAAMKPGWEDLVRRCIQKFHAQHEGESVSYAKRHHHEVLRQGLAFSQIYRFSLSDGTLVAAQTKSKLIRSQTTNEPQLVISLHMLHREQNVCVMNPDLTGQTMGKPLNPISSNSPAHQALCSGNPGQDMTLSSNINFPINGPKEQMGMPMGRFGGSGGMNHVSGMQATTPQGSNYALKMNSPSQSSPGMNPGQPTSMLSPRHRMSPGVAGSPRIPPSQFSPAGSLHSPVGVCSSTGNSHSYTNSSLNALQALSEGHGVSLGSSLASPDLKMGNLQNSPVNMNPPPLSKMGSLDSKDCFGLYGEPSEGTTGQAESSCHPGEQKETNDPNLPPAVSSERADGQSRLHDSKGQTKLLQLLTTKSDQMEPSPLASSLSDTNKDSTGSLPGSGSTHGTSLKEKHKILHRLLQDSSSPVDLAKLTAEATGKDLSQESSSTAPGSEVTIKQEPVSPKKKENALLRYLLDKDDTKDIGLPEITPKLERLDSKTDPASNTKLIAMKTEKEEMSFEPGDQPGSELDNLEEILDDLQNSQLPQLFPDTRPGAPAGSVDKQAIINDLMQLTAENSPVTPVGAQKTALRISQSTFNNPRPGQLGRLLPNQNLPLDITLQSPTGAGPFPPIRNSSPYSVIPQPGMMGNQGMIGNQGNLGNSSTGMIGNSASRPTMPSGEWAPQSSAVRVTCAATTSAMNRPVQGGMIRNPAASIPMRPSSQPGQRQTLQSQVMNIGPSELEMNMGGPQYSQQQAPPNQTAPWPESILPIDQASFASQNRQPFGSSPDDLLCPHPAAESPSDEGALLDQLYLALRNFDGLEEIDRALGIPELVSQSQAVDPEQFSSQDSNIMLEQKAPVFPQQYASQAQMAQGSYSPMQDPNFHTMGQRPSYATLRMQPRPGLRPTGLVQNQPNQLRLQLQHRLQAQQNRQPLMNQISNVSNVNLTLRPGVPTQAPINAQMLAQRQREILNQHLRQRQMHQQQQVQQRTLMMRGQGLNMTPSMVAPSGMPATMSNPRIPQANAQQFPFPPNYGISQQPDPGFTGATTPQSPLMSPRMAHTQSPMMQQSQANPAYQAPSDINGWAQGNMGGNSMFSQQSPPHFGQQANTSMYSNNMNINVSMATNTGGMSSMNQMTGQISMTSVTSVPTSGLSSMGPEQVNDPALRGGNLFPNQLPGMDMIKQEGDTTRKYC
Sequence of Peroxisome proliferator-activated receptor gamma/Nuclear receptor coactivator 1 (P37231 whole entry): as the sequence (P37231 whole entry) above
Sequence of Peroxisome proliferator-activated receptor gamma/Nuclear receptor coactivator 1 (Q15788 whole entry, further chain): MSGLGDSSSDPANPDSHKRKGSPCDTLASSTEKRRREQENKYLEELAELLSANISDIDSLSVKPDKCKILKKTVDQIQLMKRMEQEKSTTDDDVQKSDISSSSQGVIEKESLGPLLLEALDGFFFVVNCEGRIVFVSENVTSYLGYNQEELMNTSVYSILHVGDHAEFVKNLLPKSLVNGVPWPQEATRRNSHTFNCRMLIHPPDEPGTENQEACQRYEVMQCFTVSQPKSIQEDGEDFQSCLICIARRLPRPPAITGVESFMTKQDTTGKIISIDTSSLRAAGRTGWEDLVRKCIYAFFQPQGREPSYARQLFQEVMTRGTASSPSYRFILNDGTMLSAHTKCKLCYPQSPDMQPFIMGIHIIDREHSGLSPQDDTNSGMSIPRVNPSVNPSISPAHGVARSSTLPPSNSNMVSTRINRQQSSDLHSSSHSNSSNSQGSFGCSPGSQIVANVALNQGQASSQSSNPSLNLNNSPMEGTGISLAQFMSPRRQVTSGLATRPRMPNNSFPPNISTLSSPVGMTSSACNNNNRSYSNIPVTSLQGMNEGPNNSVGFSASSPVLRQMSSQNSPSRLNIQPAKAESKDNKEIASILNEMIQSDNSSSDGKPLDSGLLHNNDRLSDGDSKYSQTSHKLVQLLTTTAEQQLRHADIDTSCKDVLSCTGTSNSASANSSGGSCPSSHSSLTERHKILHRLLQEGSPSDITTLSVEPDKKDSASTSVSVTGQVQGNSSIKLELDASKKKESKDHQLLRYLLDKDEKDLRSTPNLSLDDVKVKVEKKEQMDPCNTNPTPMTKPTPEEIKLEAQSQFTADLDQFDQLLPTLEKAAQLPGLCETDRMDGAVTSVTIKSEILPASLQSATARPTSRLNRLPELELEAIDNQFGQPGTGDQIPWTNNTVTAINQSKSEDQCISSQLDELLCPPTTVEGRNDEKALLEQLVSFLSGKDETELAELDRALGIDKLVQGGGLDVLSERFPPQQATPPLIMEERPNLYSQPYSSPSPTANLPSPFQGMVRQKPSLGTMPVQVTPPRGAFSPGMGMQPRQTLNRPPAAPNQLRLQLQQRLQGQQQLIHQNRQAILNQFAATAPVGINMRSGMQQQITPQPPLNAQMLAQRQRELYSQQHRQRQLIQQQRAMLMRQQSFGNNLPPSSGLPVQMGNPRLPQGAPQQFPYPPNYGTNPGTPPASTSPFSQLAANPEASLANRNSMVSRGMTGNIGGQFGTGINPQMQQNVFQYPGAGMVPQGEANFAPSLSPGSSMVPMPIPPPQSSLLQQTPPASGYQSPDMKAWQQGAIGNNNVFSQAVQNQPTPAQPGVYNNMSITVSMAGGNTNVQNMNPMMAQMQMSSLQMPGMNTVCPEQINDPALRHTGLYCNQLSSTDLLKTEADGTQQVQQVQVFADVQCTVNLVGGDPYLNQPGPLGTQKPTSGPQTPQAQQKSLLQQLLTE
Sequence of Disintegrin and metalloproteinase domain-containing protein 17 (P78536 whole entry, the tested form may be a part): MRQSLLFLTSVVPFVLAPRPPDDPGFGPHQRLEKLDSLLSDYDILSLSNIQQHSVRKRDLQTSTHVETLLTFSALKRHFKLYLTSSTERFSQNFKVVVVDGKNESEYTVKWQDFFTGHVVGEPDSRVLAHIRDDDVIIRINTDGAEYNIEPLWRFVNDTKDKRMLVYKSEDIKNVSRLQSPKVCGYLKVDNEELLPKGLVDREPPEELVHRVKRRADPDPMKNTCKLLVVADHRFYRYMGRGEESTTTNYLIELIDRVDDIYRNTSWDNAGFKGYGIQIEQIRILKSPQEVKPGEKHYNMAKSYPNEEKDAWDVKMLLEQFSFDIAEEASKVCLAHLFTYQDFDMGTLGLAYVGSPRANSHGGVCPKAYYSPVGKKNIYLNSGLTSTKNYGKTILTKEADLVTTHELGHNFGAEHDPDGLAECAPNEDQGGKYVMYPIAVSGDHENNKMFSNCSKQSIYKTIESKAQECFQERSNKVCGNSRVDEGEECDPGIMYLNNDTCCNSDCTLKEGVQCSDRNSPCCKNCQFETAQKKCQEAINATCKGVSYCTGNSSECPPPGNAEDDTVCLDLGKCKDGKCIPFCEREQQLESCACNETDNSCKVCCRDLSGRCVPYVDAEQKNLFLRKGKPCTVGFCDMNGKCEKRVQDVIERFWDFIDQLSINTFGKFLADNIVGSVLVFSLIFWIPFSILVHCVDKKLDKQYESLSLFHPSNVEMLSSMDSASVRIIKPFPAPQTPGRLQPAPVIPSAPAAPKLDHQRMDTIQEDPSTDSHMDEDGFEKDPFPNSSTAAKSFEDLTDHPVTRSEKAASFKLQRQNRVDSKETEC
Sequence of FAD-linked sulfhydryl oxidase ALR (P55789 whole entry): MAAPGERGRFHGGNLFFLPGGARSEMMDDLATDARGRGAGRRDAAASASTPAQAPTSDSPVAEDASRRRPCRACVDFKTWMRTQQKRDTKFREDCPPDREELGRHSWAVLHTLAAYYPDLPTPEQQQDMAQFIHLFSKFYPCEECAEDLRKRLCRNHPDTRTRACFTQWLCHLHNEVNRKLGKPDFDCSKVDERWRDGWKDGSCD

O=C(COC(=O)Cc1ccc(Cl)cc1)NCc1ccco1
CC50 [1]: > 40 µM (active)

C#CCOC(=O)C[N+](C)(C)CC#Cc1ccccc1
IC50 (HEK293): > 67.6 µM (inactive) | IC50 [2]: > 67.6 µM (inactive)

CCc1c(C)c2ccc(O)c(CN(C)C)c2oc1=O
IC50 (Aminopeptidase N): 28.9 µM (active)

O=C(O)COc1ccccc1/C=N/Nc1ccc(S(=O)(=O)Nc2ccc(Cl)cc2)cc1[N+](=O)[O-]
IC50 (Aminopeptidase N): 38.9 µM (active) | IC50 (Genome polyprotein): 36.7 µM (active)

Cc1ccccc1-c1nc(S(=O)(=O)c2ccc(Br)cc2)c(NCc2cccnc2)o1
IC50 [3]: > 69.5 µM (inactive) | IC50 [4]: > 69.5 µM (inactive) | CC50 [5]: 21.9 µM (active)

COc1ccc(NC(=O)/C(C#N)=C/c2ccc(Sc3nncn3C)c([N+](=O)[O-])c2)cc1
CC50 [1]: > 40 µM (active) | IC50 [6]: > 100 µM (active)

Nc1ccc(N=Nc2ccc(O)cc2)c(N)n1
CC50 [1]: 25.8 µM (active) | IC50 [7]: 8.44 µM (active)

COc1ccc(Br)cc1-c1nc(CCl)cs1
EC50 [8]: 5.52 µM (active) | AC50 [9]: 14.1 µM (active) | EC50 [10]: 9.93 µM (active) | EC50 [11]: > 79.4 µM (not active)
